Experiments:
Keratin 19 = assay: RT-PCR of Keratin 19 expression in HHORSC; assay type: cell-based, human; conditions: peptide 500 nM, 5 μM, and 50 μM, 72 hours, vs control group without treatment, FIG. 6
Method: (§1) Specifically, HHORSC (human hair outer root sheath cell, Sciencell, USA) was seeded in a 6-well culture plate at 4×10^5 cells/well and then cultured in MSC complete medium (mesenchymal stem cell complete media) for 24 hours. Next, the medium was replaced with serum free MSC complete medium and cultured again for 24 hours. Then, the HHORSC was treated with the peptide of Preparation Example consisting of amino acid sequence of SEQ ID NO: 1 at concentrations of 500 nM, 5 μM, and 50 μM, respectively, and cultured at 37° C. for 72 hours. As a positive control, EGF was treated at a concentration of 50 nM, and as a negative control, HHORSC without any treatment was used. After washing with PBS, RNA was isolated by treating with 300 ? of easy blue (intron, Korea). Then, CDNA was synthesized using a cDNA synthesis kit (enzynomics, Korea) by quantification using nano drop, and PCR was performed using primers for Keratin 14 and Keratin 19 (base sequences of each primer are listed in Table 3 below) and PCR premix (enzynomics, Korea). Electrophoresis was performed on a 1.5% agarose gel, and the mRNAs of Keratin 14 and Keratin 19 were detected using a band analysis system (Bio-Rad gel image system).

MSX2 = assay: RT-PCR of MSX2 expression in HHGMC; assay type: cell-based, human; conditions: peptide 500 nM, 5 μM, and 50 μM, 72 hours, vs untreated control group, FIG. 7
Method: Specifically, HHGMC (human hair germinal matrix cell, Sciencell, USA) was seeded in a 6-well culture plate at 4×10^5 cells/well and then cultured in MSC complete medium (mesenchymal stem cell complete media) for 24 hours. Next, the medium was replaced with serum free MSC complete medium and cultured again for 24 hours. Then, the HHGMC was treated with the peptide of SEQ ID NO: 1 prepared in the Preparation Example at concentrations of 500 nM, 5 μM, and 50 μM, respectively, and cultured at 37° C. for 72 hours. As a positive control, EGF was treated at a concentration of 50 nM, and as a negative control, HHGMC without any treatment was used. After washing with PBS, RNA was isolated by treating with 300 ? of easy blue (intron, Korea). Next, cDNA was synthesized using a cDNA synthesis kit (enzynomics, Korea) by quantification using nano drop, and PCR was performed using primers for MSX2 (base sequences of the primers are listed in Table 4 below) and PCR premix (enzynomics, Korea). Electrophoresis was performed on a 1.5% agarose gel, and MSX2 mRNA was detected using a band analysis system (Bio-Rad gel image system).

[1] = system: human hair follicle dermal papilla cells (HHFDPC); assay: Proliferation of dermal papilla cells (MTT, absorbance at 540 nm); assay type: cell-based; conditions: peptide 500 nM, 5 μM, and 50 μM, 72 hours, compared to the untreated control group, FIG. 1
Method: While culturing human hair follicle dermal dermal papilla cells (HHFDPC), the absorbance was measured after treatment with the peptide of the present invention to confirm whether there was an effect of promoting the proliferation of the HHFDPC dermal papilla cells.
Specifically, HHFDPC (Sciencell, USA) was seeded at 4×10^3 cells/well in a 96-well culture plate, cultured in MSC complete medium (mesenchymal stem cell complete media, Sciencell, USA) for 24 hours, and then the medium was replaced with serum free MSC complete medium and cultured for another 24 hours. Then, the HHFDPC was treated with the peptide of SEQ ID NO: 1 prepared in the Preparation Example at concentrations of 500 nM, 5 μM, and 50 μM, respectively, and cultured at 37° C. for 72 hours. As a positive control, minoxidil was treated at a concentration of 1 μM, and as a negative control, HHFDPC without any treatment was used. Then, 10 ? of 5 mg/ml MTT solution was added and cultured in a 37° C. CO2 incubator for 4 hours to stain the cells. After removing the medium, the cells were treated with 100 μl of DMSO and shaken for 10 minutes, and the number of HHFDPC cells was confirmed by measuring absorbance at a wavelength of 540 nm using a spectrophotometer.

Keratin 14 = assay: RT-PCR of Keratin 14 expression in HHORSC; assay type: cell-based, human; conditions: peptide 500 nM, 5 μM, and 50 μM, 72 hours, vs control group without treatment, FIG. 6
Method: as §1

DKK-1 protein = assay: Western blotting of DKK-1 protein in DHT-treated HHFDPC; assay type: cell-based, human; conditions: HHFDPC with DHT 100 nM, peptide 500 nM, 5 μM, and 50 μM, 24 hours, vs negative control (DHT only), FIG. 5
Method: DKK-1 protein (dickkopf-related protein 1) is a hair loss-related protein known to be highly expressed in individuals with hair loss, especially male pattern hair loss, and its expression is known to be promoted by hormones such as DHT (Dihydrotestosterone). Accordingly, the expression of DKK-1 protein was induced by treating HHFDPC cells with DHT together with the peptide according to the Preparation Example of the present invention, and then the expression level of DKK-1 was measured through Western blotting to determine whether there was an effect of suppressing the expression of DKK-1 protein.
Specifically, as in [Experiment Example 1-1] above, HHFDPC was seeded in a 6-well culture plate at 4×10^5 cells/well and then cultured in MSC complete medium (mesenchymal stem cell complete media) for 24 hours. Next, the medium was replaced with serum free MSC complete medium and cultured again for 24 hours. […] After washing again with 0.1% PBS-T (0.1% Tween-20 in PBS) three times for 15 minutes each, DKK-1 protein was detected by treatment with ECL solution (GE Healthcare, USA).

LEF-1 = assay: RT-PCR of LEF-1 expression in HHFDPC; assay type: cell-based, human; conditions: peptide 500 nM, 5 μM, and 50 µM, 24 hours, vs control group without any treatment, FIG. 4
Method: (§2) Furthermore, in order to determine whether the β-catenin moves to the nucleus and is activated to affect proliferation and differentiation, whether the expression of LEF-1, c-Myc and cyclin D1 (cyclin D1), which act as downstream factors, increases with β-catenin activation was confirmed through RT-PCR. Specifically, in the same manner as the previous Western blotting experiment, HHFDPC cells were cultured, treated with the peptides prepared in the Preparation Example of the present invention at concentrations of 500 nM, 5 μM, and 50 µM, respectively, and cultured at 37° C. for 24 hours. After washing the cells with PBS, RNA was isolated by treating them with 300 […] of easy blue (intron, Korea). Then, CDNA was synthesized using a cDNA synthesis kit (enzynomics, Korea) by quantifying it with nano drop, and PCR was performed using primers for LEF-1, c-Myc and cyclin D1 (sequences of the primers are listed in Table 2 below) and PCR premix (enzynomics, Korea). Electrophoresis was performed on a 1.5% agarose gel, and then the mRNA of LEF-1, c-Myc and cyclin D1 was detected using a band analysis system (Bio-Rad gel image system).

p-AKT = assay: Western blotting of phosphorylated AKT in HHFDPC; assay type: cell-based, human; conditions: peptide 500 nM, 5 μM, and 50 μM, 24 hours, vs control group not treated, FIG. 2
Method: (§3) First, phosphorylated forms of AKT and ERK, which act as signaling molecules related to the proliferation of HHFDPC, were confirmed through Western blotting. Specifically, HHFDPC as in [Experiment Example 1-1] above was seeded at 4×10^5 cells/well in a 6-well culture plate, cultured in MSC complete medium (mesenchymal stem cell complete media) for 24 hours, and then the medium was replaced with serum free MSC complete medium and cultured for another 24 hours. Then, the HHFDPC was treated with the peptide of SEQ ID NO: 1 prepared in the Preparation Example at concentrations of 500 nM, 5 μM, and 50 μM, respectively, and cultured at 37° C. for 24 hours. As a positive control, minoxidil was treated at a concentration of 1 μM, and as a negative control, HHFDPC without any treatment was used. Then, Western blotting was performed to detect phosphorylated AKT and phosphorylated ERK. After washing with PBS, the cells were treated with 100 ? of lysis buffer to destroy cells, thereby obtaining cell lysate. After electrophoresis using a 10% SDS-PAGE gel, it was transferred to a PVDF membrane and blocked using 5% skim milk at room temperature for 30 minutes. […] After washing again with 0.1% PBS-T (0.1% Tween-20 in PBS) three times for 15 minutes each, p-AKT and p-ERK were detected by treatment with ECL solution (GE Healthcare, USA).

p-ERK = assay: Western blotting of phosphorylated ERK in HHFDPC; assay type: cell-based, human; conditions: peptide 500 nM, 5 μM, and 50 μM, 24 hours, vs control group not treated, FIG. 2
Method: as §3

cyclin D1 = assay: RT-PCR of cyclin D1 expression in HHFDPC; assay type: cell-based, human; conditions: peptide 500 nM, 5 μM, and 50 µM, 24 hours, vs control group without any treatment, FIG. 4
Method: as §2

β-catenin = assay: Western blotting of β-catenin moved to the nucleus in HHFDPC; assay type: cell-based, human; conditions: HHFDPC nuclear proteins, peptide 500 nM, 5 µM, and 50 μM, 24 hours, vs control group not treated, FIG. 3
Method: In addition, in addition to p-AKT and p-ERK, in order to confirm the activation of β-catenin, which is known to affect cell proliferation and differentiation, whether β-catenin moved into the nucleus was confirmed through Western blotting. Specifically, the HHFDPC as in [Experiment Example 1-1] was seeded in a 6-well culture plate at an amount of 4×10^5 cells/well, cultured in MSC complete medium (mesenchymal stem cell complete media) for 24 hours. Next, the medium was replaced with serum free MSC complete medium and cultured again for 24 hours. Then, the HHFDPC was treated with the peptide of SEQ ID NO: 1 prepared in the Preparation Example at concentrations of 500 nM, […], and 50 μM, respectively, and cultured at 37° C. for 24 hours. As a positive control, minoxidil was treated at a concentration of 1 μM, and as a negative control, HHFDPC without any treatment was used. After washing with PBS, proteins in the nucleus were isolated using a nuclear protein extraction kit (Thermo scientific, USA). After electrophoresis using a 10% SDS-PAGE gel, it was transferred to a PVDF membrane and blocked using 5% skim milk at room temperature for 30 minutes. […] After washing again with 0.1% PBS-T (0.1% Tween-20 in PBS) three times for 15 minutes each, β-catenin was detected by treatment with ECL solution (GE Healthcare, USA).

c-Myc = assay: RT-PCR of c-Myc expression in HHFDPC; assay type: cell-based, human; conditions: peptide 500 nM, 5 μM, and 50 µM, 24 hours, vs control group without any treatment, FIG. 4
Method: as §2

Sequence: KLQEHLDM [peptide of the present invention]
- amount of Keratin 19 mRNA (Keratin 19): the amount of mRNA increased further compared to the control group
- amount of MSX2 mRNA (MSX2): the amount of mRNA increased further compared to the untreated control group
- proliferation of HHFDPC (absorbance, MTT) [1]: proliferation of HHFDPC was promoted depending on the concentration of the treated peptide
- amount of Keratin 14 mRNA (Keratin 14): the amount of mRNA increased further compared to the control group
- amount of DKK-1 protein (DKK-1 protein): the amount of DKK-1 protein was found to be reduced
- amount of LEF-1 mRNA (LEF-1): the amount of mRNA increased further compared to the control group
- phosphorylation of AKT (p-AKT) (p-AKT): phosphorylation was found to be increased compared to the control group
- phosphorylation of ERK (p-ERK) (p-ERK): phosphorylation was found to be increased compared to the control group
- amount of cyclin D1 mRNA (cyclin D1): the amount of mRNA increased further compared to the control group
- β-catenin moved to the nucleus (activation of β-catenin) (β-catenin): migration due to activation of β-catenin increased
- amount of c-Myc mRNA (c-Myc): the amount of mRNA increased further compared to the control group

Reference: patent publication US20250281378A1, “PEPTIDE HAVING ACTIVITY OF PREVENTING HAIR LOSS OR PROMOTING HAIR GROWTH AND USE THEREOF” (CAREGEN CO., LTD., priority 2021, published 2025)
